Format in all cases: biochemical
For experiment [1], the target named is T1, human Akt2 kinase (kinase domain residues K146-R480) (Homo sapiens, UniProt P31751).
T1 construct: human Akt2 kinase domain residues K146-R480; made in house
Kind of experiment: Akt2 kinase assay, Luciferase-Coupled Chemiluminescent Kinase assay (LCCA). The note with it: 2 μM ATP, 10 nM Akt2; read-out: Akt-2 inhibition IC50. The procedure:
Kinase activity and compound inhibition are investigated using one or more of the three assay formats described below. The ATP concentrations for each assay are selected to be close to the Michaelis-Menten constant (KM) for each individual kinase. Dose-response experiments are performed at 10 different inhibitor concentrations in a 384-well plate format. The data are fitted to four-parameter equation (2) below; where Y is the observed signal, X is the inhibitor concentration, Min is the background signal in the absence of enzyme (0% enzyme activity), Max is the signal in the absence of inhibitor (100% enzyme activity), IC50 is the inhibitor concentration at 50% enzyme inhibition and H represents the empirical Hill's slope to measure the cooperativity. Typically H is close to unity. Y=Min+(Max−Min)/(1+(X/IC50)^H) Equation (2) p70S6 Kinase Assay
Biochemical activity of Akt2 kinase was assessed using a Luciferase-Coupled Chemiluminescent Kinase assay (LCCA) format. Kinase activity was measured as the percent ATP remaining following the kinase reaction. Remaining ATP was detected by luciferase-luciferin-coupled chemiluminescence. Specifically, the reaction was initiated by mixing test compounds, 2 μM ATP, 5 μM crosstide peptide and 10 nM Akt2 (baculovirus expressed human Akt2 kinase domain residues K146-R480) in a 20 uL assay buffer (20 mM Tris-HCL pH 7.5, 10 mM MgCl2, 0.03% Triton X-100, 1 mM DTT, 3 mM MnCl2). The mixture is incubated at ambient temperature for 2 hours after which 20 μL luciferase-luciferin mix is added and the chemiluminescent signal read using a Wallac Victor2 reader. The luciferase-luciferin mix consists of 50 mM HEPES, pH 7.8, 8.5 μg/mL oxalic acid (pH 7.8), 5 (or 50) mM DTT, 0.4% Triton X-100, 0.25 mg/mL coenzyme A, 63 uM AMP, 28 μg/mL luciferin and 40,000 units/mL luciferase.

For experiment [2], the target named is T2, human Akt1 kinase (kinase domain residues R144-A480, activated with PDK1) (Homo sapiens, UniProt P31749).
T2 construct: made in house
T2 sequence (P31749 144-480): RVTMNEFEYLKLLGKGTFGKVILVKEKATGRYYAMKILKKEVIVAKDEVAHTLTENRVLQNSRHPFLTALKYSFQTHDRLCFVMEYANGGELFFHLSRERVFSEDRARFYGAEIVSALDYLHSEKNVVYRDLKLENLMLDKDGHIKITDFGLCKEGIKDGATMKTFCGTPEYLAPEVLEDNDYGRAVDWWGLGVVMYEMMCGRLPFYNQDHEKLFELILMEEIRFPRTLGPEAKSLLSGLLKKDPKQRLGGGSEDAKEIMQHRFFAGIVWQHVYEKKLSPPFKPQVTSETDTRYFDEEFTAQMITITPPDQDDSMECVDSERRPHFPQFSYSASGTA
The experiment can be described thus: Akt1 kinase assay, Luciferase-Coupled Chemiluminescent Kinase assay (LCCA). The note with it: 1 μM ATP, 1.3 nM Akt1; read-out: Akt-1 inhibition IC50. The gist of the method: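 Baculovirus-expressed PDK1-activated Akt1 kinase domain (R144-A480), 1.3 nM, with 5 μM crosstide and 1 μM ATP in Tris pH 7.5 with MgCl2/MnCl2, 3 h at ambient temperature. Remaining ATP read by luciferase-luciferin chemiluminescence; 10-point IC50 from four-parameter fit.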

Experiment [3] deals with T3, human p70S6 kinase (p70S6K, kinase domain residues 1-421, T412E mutation) (Homo sapiens, UniProt P23443, T412E).
T3 construct: human p70S6 kinase domainresidues 1-421, containing a T412E mutation; made in house
T3 sequence (P23443 1-421 T412E): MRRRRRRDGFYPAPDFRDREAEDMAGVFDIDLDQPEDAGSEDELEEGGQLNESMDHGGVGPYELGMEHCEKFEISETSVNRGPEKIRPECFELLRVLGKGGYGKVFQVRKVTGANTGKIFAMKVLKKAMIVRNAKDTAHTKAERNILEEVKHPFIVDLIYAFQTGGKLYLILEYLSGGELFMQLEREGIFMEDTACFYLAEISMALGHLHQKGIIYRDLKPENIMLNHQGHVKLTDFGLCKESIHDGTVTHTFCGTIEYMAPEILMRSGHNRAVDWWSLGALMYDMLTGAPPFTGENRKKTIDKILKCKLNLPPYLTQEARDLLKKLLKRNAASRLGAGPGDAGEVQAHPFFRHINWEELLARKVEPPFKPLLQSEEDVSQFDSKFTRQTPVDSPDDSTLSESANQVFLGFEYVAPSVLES
Kind of experiment: p70S6 kinase assay, Luciferase-Coupled Chemiluminescent Kinase assay (LCCA). Conditions: 5 μM ATP, 12 nM p70S6K; read-out: p70S6K inhibition IC50. In short, it runs like this:
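Baculovirus-expressed kinase domain (12 nM) reacted 2 h at ambient temperature with 5 μM ATP and 5 μM RRRLSSLRA peptide. Buffer was Tris pH 7.5 with MgCl2, MnCl2, DTT and Triton X-100. Remaining ATP was read by luciferase-luciferin chemiluminescence. IC50 came from 10-point dose-response with a four-parameter Hill fit.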

pIC50: −log10 of the molar value.

What is called pIC50 is the IC50 on a negative log10 scale, so that one unit is a factor of ten.

T1 sequence (P31751 146-480): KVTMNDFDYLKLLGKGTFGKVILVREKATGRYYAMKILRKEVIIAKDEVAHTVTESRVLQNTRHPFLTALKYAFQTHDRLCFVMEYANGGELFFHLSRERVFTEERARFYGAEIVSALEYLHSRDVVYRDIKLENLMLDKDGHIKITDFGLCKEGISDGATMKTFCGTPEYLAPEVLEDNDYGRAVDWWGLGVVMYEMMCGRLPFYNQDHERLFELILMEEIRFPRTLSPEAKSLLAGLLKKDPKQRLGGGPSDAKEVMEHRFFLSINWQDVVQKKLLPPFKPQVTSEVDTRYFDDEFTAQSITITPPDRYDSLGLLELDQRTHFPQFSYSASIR

As to `Brc1n[nH]c2ncnc(N3CCN(Cc4ccccc4)CC3)c12` [Entry 50, 3-bromo-4-[4-(phenylmethyl)piperazin-1-yl]-1H-pyrazolo[3,4-d]pyrimidine], the negative-log IC50 (pIC50) is < 5.70 in experiment [1], < 5.70 in experiment [2] and 6.30 to 7.30 in experiment [3].
`COc1cc(OC)nc(C(c2ccccc2)N2CCN(c3ncnc4[nH]nc(Br)c34)CC2)n1` (stereo not drawn) [Entry 77, 4-{4-[[4,6-bis(methyloxy)pyrimidin-2-yl](phenyl)methyl]piperazin-1-yl}-3-bromo-1H-pyrazolo[3,4-d]pyrimidine]: the pIC50 in experiment [1], in experiment [2] and in experiment [3] was < 5.70 in each case.
Take `Fc1ccc(CN2CCN(c3ncnc4[nH]nc(Br)c34)CC2)cc1` [Entry 34, 3-bromo-4-{4-[(4-fluorophenyl)methyl]piperazin-1-yl}-1H-pyrazolo[3,4-d]pyrimidine]: the values for the pIC50 in experiment [1], in experiment [2] and in experiment [3] were < 5.70, 5.70 to 6.30 and > 7.30, respectively.
The corresponding values for `Brc1n[nH]c2ncnc(N3CCN(CCc4cccs4)CC3)c12` [Entry 68, 3-bromo-4-{4-[2-(2-thienyl)ethyl]piperazin-1-yl}-1H-pyrazolo[3,4-d]pyrimidine] are < 5.70, < 5.70 and 5.70 to 6.30.
For `Brc1n[nH]c2ncnc(N3CCN(Cc4cccnc4)CC3)c12` [Entry 60, 3-bromo-4-[4-(pyridin-3-ylmethyl)piperazin-1-yl]-1H-pyrazolo[3,4-d]pyrimidine] the same measures were < 5.70, < 5.70 and 6.30 to 7.30.
Consider `O=C(c1ccco1)N1CCN(c2ncnc3[nH]nc(Br)c23)CC1` [Entry 66, 3-bromo-4-[4-(furan-2-ylcarbonyl)piperazin-1-yl]-1H-pyrazolo[3,4-d]pyrimidine], for which the negative logarithm of the IC50 (pIC50) in experiment [1] was < 5.70; in experiment [2] it was < 5.70; in experiment [3], 5.70 to 6.30.
In the case of `CN(C)C(=O)CN1CCN(c2ncnc3[nH]nc(Br)c23)CC1` [Entry 85, 2-[4-(3-bromo-1H-pyrazolo[3,4-d]pyrimidin-4-yl)piperazin-1-yl]-N,N-dimethylacetamide], the pIC50 in experiment [1], in experiment [2] and in experiment [3] was < 5.70 throughout.
Turning to `Brc1n[nH]c2ncnc(N3CCN(Cc4ccc(Oc5ccccc5)cc4)CC3)c12` [Entry 39, 3-bromo-4-(4-{[4-(phenyloxy)phenyl]methyl}piperazin-1-yl)-1H-pyrazolo[3,4-d]pyrimidine], the figures for the pIC50 in experiment [1], in experiment [2] and in experiment [3] were < 5.70, < 5.70 and > 7.30, respectively.
Take `Brc1ccccc1CN1CCN(c2ncnc3[nH]nc(Br)c23)CC1` [Entry 45, 3-bromo-4-{4-[(2-bromophenyl)methyl]piperazin-1-yl}-1H-pyrazolo[3,4-d]pyrimidine]: the pIC50 in experiment [1] was < 5.70; in experiment [2] it was < 5.70; in experiment [3] it was > 7.30.
In the case of `Clc1ccc(CN2CCN(c3ncnc4[nH]nc(Br)c34)CC2)cc1` [Entry 19, 3-bromo-4-{4-[(4-chlorophenyl)methyl]piperazin-1-yl}-1H-pyrazolo[3,4-d]pyrimidine], the negative logarithm of the IC50 (pIC50) in experiment [1] was < 5.70; in experiment [2], 6.30 to 7.30; in experiment [3] it was > 7.30.
In the case of `Brc1n[nH]c2ncnc(N3CCN(Cc4cccc(Oc5ccccc5)c4)CC3)c12` [Entry 53, 3-bromo-4-(4-{[3-(phenyloxy)phenyl]methyl}piperazin-1-yl)-1H-pyrazolo[3,4-d]pyrimidine], the negative-log IC50 (pIC50) in experiment [1] is < 5.70; in experiment [2], < 5.70; in experiment [3], 6.30 to 7.30.
Regarding `CN(C)CCOC(c1ccc(Cl)cc1)C1CCN(c2ncnc3[nH]nc(Br)c23)CC1` (stereo not drawn) [Entry 2, 2-{[[1-(3-bromo-1H-pyrazolo[3,4-d]pyrimidin-4-yl)piperidin-4-yl](4-chlorophenyl)methyl]oxy}-N,N-dimethylethanamine], the pIC50 was 6.30 to 7.30 in experiment [1], > 7.30 in experiment [2] and > 7.30 in experiment [3].
Take `COc1ccc(CN2CCN(c3ncnc4[nH]nc(Br)c34)CC2)c(OC)c1OC` [Entry 61, 3-bromo-4-(4-{[2,3,4-tris(methyloxy)phenyl]methyl}piperazin-1-yl)-1H-pyrazolo[3,4-d]pyrimidine]: the pIC50 is < 5.70 in experiment [1], < 5.70 in experiment [2] and 6.30 to 7.30 in experiment [3].
With `C[C@H]1CN(c2ncnc3[nH]nc(Br)c23)CCN1Cc1ccc(Cl)cc1` [Entry 31, 3-bromo-4-{(3S)-4-[(4-chlorophenyl)methyl]-3-methylpiperazin-1-yl}-1H-pyrazolo[3,4-d]pyrimidine], the pIC50 in experiment [1] was < 5.70; in experiment [2] it was 5.70 to 6.30; in experiment [3], > 7.30.
For `COCCN1CCN(c2ncnc3[nH]nc(Br)c23)CC1` [Entry 74, 3-bromo-4-{4-[2-(methyloxy)ethyl]piperazin-1-yl}-1H-pyrazolo[3,4-d]pyrimidine] the same measures were < 5.70, < 5.70 and 5.70 to 6.30.
The corresponding values for `O=C(c1ccc2cc[nH]c2c1)N1CCN(c2ncnc3[nH]nc(Br)c23)CC1` [Entry 67, 3-bromo-4-[4-(1H-indol-6-ylcarbonyl)piperazin-1-yl]-1H-pyrazolo[3,4-d]pyrimidine] are < 5.70, < 5.70 and 5.70 to 6.30.
For `Clc1ccc(CN2CCN(c3ncnc4[nH]nc(Br)c34)CC2)cc1Cl` [Entry 27, 3-bromo-4-{4-[(3,4-dichlorophenyl)methyl]piperazin-1-yl}-1H-pyrazolo[3,4-d]pyrimidine] the same measures were < 5.70, 6.30 to 7.30 and > 7.30.
On to `Clc1ccc(-c2ccc(CN3CCN(c4ncnc5[nH]nc(Br)c45)CC3)o2)cc1` [Entry 64, 3-bromo-4-(4-{[5-(4-chlorophenyl)furan-2-yl]methyl}piperazin-1-yl)-1H-pyrazolo[3,4-d]pyrimidine], for which the results for the negative logarithm of the IC50 (pIC50) in experiment [1], in experiment [2] and in experiment [3] were < 5.70, < 5.70 and 5.70 to 6.30, respectively.
Regarding `Fc1cccc(Cl)c1CN1CCN(c2ncnc3[nH]nc(Br)c23)CC1` [Entry 56, 3-bromo-4-{4-[(2-chloro-6-fluorophenyl)methyl]piperazin-1-yl}-1H-pyrazolo[3,4-d]pyrimidine], the pIC50 is < 5.70 in experiment [1], < 5.70 in experiment [2] and 6.30 to 7.30 in experiment [3].
With `Brc1n[nH]c2ncnc(N3CCN(Cc4ncc[nH]4)CC3)c12` [Entry 52, 3-bromo-4-[4-(1H-imidazol-2-ylmethyl)piperazin-1-yl]-1H-pyrazolo[3,4-d]pyrimidine], the values for the negative logarithm of the IC50 (pIC50) in experiment [1], in experiment [2] and in experiment [3] were < 5.70, < 5.70 and 6.30 to 7.30, respectively.
In the case of `O=C(CN1CCN(c2ncnc3[nH]nc(Br)c23)CC1)Nc1ccccn1` [Entry 51, 2-[4-(3-bromo-1H-pyrazolo[3,4-d]pyrimidin-4-yl)piperazin-1-yl]-N-pyridin-2-ylacetamide], the negative-log IC50 (pIC50) in experiment [1] was < 5.70; in experiment [2], < 5.70; in experiment [3], 6.30 to 7.30.
`Brc1n[nH]c2ncnc(N3CCN(Cc4ccncc4)CC3)c12` [Entry 58, 3-bromo-4-[4-(pyridin-4-ylmethyl)piperazin-1-yl]-1H-pyrazolo[3,4-d]pyrimidine]: the pIC50 in experiment [1] is < 5.70; in experiment [2] it was < 5.70; in experiment [3] it was 6.30 to 7.30.
`Brc1n[nH]c2ncnc(N3CCN(Cc4cccc5ccccc45)CC3)c12` [Entry 63, 3-bromo-4-[4-(naphthalen-1-ylmethyl)piperazin-1-yl]-1H-pyrazolo[3,4-d]pyrimidine]: the pIC50 in experiment [1] is < 5.70; in experiment [2], < 5.70; in experiment [3] it was 6.30 to 7.30.
In the case of `Clc1ccccc1CN1CCN(c2ncnc3[nH]nc(Br)c23)CC1` [Entry 46, 3-bromo-4-{4-[(2-chlorophenyl)methyl]piperazin-1-yl}-1H-pyrazolo[3,4-d]pyrimidine], the pIC50 in experiment [1] was < 5.70; in experiment [2], < 5.70; in experiment [3], > 7.30.
